Data reported in ChEMBL document CHEMBL1201862, “PubChem BioAssay data set” (2004).
Several values for one entry are separate records, joined by “and”; a condition that tells them apart may be missing. Equal values may be shown once. Activity calls are given as the source filed them. Cut-off read from the data, not from the text of the source, for most assays here: actives have a measured EC50 and inactives only a lower limit.

How the values were obtained:
[1] = target: T1, Heat shock factor protein 1 (Mus musculus, UniProt P38532); assay: decrease of HSF1-responsive luciferase luminescence – cell-based, NIH3T3, dose retest, confirmation (AID 2382); format: functional;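 note: NIH3T3 fibroblasts with HSF1-driven luciferase reporter stressed by proteasome inhibitor MG132; luminescence from HSF1-driven luciferase expression after 8 hours of MG132 stress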
T1 sequence (P38532 whole entry): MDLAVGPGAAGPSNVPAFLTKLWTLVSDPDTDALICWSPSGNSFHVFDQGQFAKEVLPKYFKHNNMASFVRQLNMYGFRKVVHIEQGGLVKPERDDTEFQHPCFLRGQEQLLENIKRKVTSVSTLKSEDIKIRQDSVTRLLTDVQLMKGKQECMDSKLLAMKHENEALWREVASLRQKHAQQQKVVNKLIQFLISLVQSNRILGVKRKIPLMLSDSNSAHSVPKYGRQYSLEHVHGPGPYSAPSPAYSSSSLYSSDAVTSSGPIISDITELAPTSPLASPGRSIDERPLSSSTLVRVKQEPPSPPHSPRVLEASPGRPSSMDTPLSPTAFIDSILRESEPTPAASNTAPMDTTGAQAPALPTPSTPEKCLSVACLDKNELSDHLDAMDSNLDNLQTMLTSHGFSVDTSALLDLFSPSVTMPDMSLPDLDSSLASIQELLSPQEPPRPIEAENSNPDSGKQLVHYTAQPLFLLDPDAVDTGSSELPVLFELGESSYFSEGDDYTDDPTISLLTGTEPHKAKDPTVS

Cytochrome P450 2D6 = Cytochrome P450 2D6 (Homo sapiens, UniProt P10635);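 note: CYP2D6 member of a cytochrome P450 panel assay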
Sequence of Cytochrome P450 2D6 (P10635 whole entry): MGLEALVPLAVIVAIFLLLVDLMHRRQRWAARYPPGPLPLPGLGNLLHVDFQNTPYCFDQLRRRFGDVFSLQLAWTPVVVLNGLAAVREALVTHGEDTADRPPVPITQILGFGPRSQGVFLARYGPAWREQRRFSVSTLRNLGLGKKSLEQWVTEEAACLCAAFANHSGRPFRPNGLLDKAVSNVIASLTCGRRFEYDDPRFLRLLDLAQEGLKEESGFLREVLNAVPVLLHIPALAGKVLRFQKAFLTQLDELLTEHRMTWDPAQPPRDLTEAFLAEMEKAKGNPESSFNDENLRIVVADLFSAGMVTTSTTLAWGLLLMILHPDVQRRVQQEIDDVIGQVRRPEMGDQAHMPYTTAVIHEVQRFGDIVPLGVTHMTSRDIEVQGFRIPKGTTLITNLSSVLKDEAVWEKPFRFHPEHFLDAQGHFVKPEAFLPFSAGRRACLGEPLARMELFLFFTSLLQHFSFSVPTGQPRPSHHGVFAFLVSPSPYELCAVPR

[2] = Trypanosoma cruzi growth suppression in host cells – NIH3T3 host cells, beta-gal luminescence, confirmation (AID 2044); format: functional, cell-based;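 note: intracellular parasites grown in NIH/3T3 mouse fibroblasts as host cells; luminescent beta-galactosidase reporter signal from transgenic T. cruzi replicating inside host cells; inhibitors lower the luminescence signal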
[3] = NIH3T3 cell viability loss – ATP luminescence, mouse fibroblasts, counter-screen, dose response (AID 2010); format: functional, cell-based;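 note: cells exposed to compound for about 90 hours before reading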
Cytochrome P450 3A4 = Cytochrome P450 3A4 (Homo sapiens, UniProt P08684);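 note: CYP3A4 tested as one member of a cytochrome P450 panel screen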
Sequence of Cytochrome P450 3A4 (P08684 whole entry): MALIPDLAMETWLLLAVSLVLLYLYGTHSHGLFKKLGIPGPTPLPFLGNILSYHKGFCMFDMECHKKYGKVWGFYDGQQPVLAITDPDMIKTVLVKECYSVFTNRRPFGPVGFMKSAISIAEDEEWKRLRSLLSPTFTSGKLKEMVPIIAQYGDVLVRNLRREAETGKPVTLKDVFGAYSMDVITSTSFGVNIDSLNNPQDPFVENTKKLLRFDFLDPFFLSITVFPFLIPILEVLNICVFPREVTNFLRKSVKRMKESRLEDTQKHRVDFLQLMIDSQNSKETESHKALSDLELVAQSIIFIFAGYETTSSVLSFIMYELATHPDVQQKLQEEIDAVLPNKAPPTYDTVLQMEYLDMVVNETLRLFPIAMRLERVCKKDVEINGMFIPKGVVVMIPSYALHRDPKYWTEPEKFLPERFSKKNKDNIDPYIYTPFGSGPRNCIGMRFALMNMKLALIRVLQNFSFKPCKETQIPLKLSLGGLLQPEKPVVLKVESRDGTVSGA

[4] = test system: Streptococcus sp. 'group A'; assay: Streptococcus pyogenes SK(-)GAS viability under kanamycin – luminescence, BacTiterGlo, confirmation, counter-screen for streptokinase expression inhibitor project, dose response (AID 1900); format: functional, organism-based
Streptococcus = assay: GAS UMAA2166 growth inhibition – luminescence, BacTiterGlo, counter-screen for streptokinase expression inhibitor project, dose response (AID 1915); format: functional, organism-based;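 note: potency for reduction of bacterial viability or growth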

Q: For `CCOC(=O)c1cccc(NC(=O)CCS(=O)(=O)c2ccc(Br)s2)c1`, which EC50 [1] is on record?
A: The EC50 was > 195 µM (not active).

Q: For `COC(=O)[C@@H]1c2cc3c(c(O)c2[C@@H](O)C[C@]1(C)O)C(=O)c1c(O)cc2c(c1C3=O)O[C@H]1O[C@@]2(C)[C@@H](O)[C@H](N(C)C)[C@H]1O`, which AC50 (Cytochrome P450 2D6) is on record?
A: Its AC50 is 5.01 µM (inconclusive).

Q: With `COc1ccc(NC(=O)CCOc2ccccc2)cc1` as the molecule, how does the AC50 (Cytochrome P450 2D6) read?
A: The AC50 was 22.4 µM (inconclusive).

Q: For `CCc1cccc2c(-c3ccccc3)c3c(nc12)OCC3`, which AC50 (Cytochrome P450 2D6) is on record?
A: Its AC50 is 15.8 µM (inconclusive).

Q: With `Cc1ccc2[nH]c(SCc3nc(O)c4cnn(-c5ccccc5)c4n3)nc2c1` as the molecule, how does the AC50 (Cytochrome P450 2D6) read?
A: The AC50 was 28.2 µM (inconclusive).

Q: Which EC50 [2] does the source give for `CCOC(=O)C1(CCOc2ccccc2)CCN(Cc2cccc3c2OCO3)CC1` here?
A: Its EC50 is 2100 nM (active).

Q: And the EC50 [3]?
A: The EC50 was > 60 µM (not active).

Q: With `O=C(CSC1=NCCN1)Nc1ccccc1` as the molecule, how does the AC50 (Cytochrome P450 3A4) read?
A: The AC50 was 5.01 µM (inconclusive).

Q: With `COC1CCN(Cc2c(C(=O)N3CCN(C4CCCCC4)CC3)nc3ccccn23)CC1` as the molecule, how does the EC50 [2] read?
A: The EC50 was 1630 nM (active).

Q: What about the EC50 [3] of the same molecule?
A: The EC50 was > 60 µM (not active).

Q: For `O=C(c1ccncc1)N1CCN(c2ccc(F)cc2)CC1`, which EC50 [1] is on record?
A: The EC50 was > 195 µM (not active).

Q: With `Cc1cnc(CNc2ncncc2-c2ccccc2C)cn1` as the molecule, how does the AC50 (Cytochrome P450 2D6) read?
A: Its AC50 is 12.6 µM (inconclusive).

Q: With `COCC(=O)N1CCC2(CC1)CN(c1ccccn1)C2` as the molecule, how does the AC50 (Cytochrome P450 2D6) read?
A: The AC50 was 20 µM (inconclusive).

Q: For `Cc1cc(C(F)(F)F)nc(SCc2ccc(C(=O)O)o2)n1`, which EC50 [1] is on record?
A: The EC50 was > 195 µM (not active).

Q: With `Cc1ccc(C(=O)N/C(=C\c2ccc(Br)cc2)c2n[nH]c(S)n2)cc1` as the molecule, how does the EC50 [1] read?
A: The EC50 was > 195 µM (not active).

Q: What about the AC50 (Cytochrome P450 2D6) of the same molecule?
A: The AC50 was 31.6 µM (inconclusive).

Q: For `CCOc1ccc(C(=O)c2ccc([N+](=O)[O-])cc2Cl)cc1`, which EC50 [2] is on record?
A: Its EC50 is 2180 nM (active).

Q: And the EC50 [3]?
A: Its EC50 is > 30 µM (not active).

Q: For `CN1[C@@H]2CC[C@H]1CC(O[C@@H](c1ccccc1)c1ccc(Cl)cc1)C2` (stereo partly specified), which AC50 (Cytochrome P450 3A4) is on record?
A: Its AC50 is 12.6 µM (inconclusive) and 15.8 µM (inconclusive).

Q: With `CN(C)c1ncc2nc(-c3ccc(F)cc3)c(=O)n(-c3ccccc3)c2n1` as the molecule, how does the AC50 (Cytochrome P450 2D6) read?
A: Its AC50 is 1.58 µM (inconclusive).

Q: Which results are given for `C=CCN1CC[C@]23c4c5ccc(O)c4O[C@@H]2/C(=N/NC(=O)c2ccccc2)CC[C@@]3(O)[C@H]1C5`?
A: AC50 (Cytochrome P450 2D6): 15.8 µM (inconclusive); AC50 (Cytochrome P450 3A4): 3.98 µM (inconclusive)

Q: For `O=C(N/N=C1/C[C@@H](O)[C@@H](O)[C@@H]2[C@H]3C(=O)N(c4ccc(F)cc4F)C(=O)[C@@H]3CC[C@H]12)OCc1ccccc1`, which AC50 (Cytochrome P450 3A4) is on record?
A: The AC50 was 3.98 µM (inconclusive).

Q: What does the source list for `Fc1cccc(NC(=S)N2CCn3cccc3C2c2cccnc2)c1` (stereo unspecified)?
A: EC50 [2]: 885 nM (active); EC50 [3]: > 60 µM (not active)

Q: What does the source list for `CCOC(=O)C1(Cc2ccccc2C(F)(F)F)CCN(C(C)CCn2cccn2)CC1` (stereo unspecified)?
A: EC50 [2]: 944 nM (active); EC50 [3]: > 60 µM (not active)

Q: What does the source list for `O=C(c1ccc2c3c(cccc13)CC2)C1CCCN(Cc2cccnc2)C1` (stereo unspecified)?
A: EC50 [2]: 709 nM (active); EC50 [3]: > 60 µM (not active)

Q: Which AC50 (Cytochrome P450 2D6) does the source give for `O=S(=O)(Nc1ccc2oc(-c3ccccc3)nc2c1)c1ccccc1` here?
A: Its AC50 is 25.1 µM (inconclusive).

Q: For `C/C(CCC(=O)OC[C@@H]1O[C@H](C#Cc2ccccc2)C=C[C@@H]1Oc1ccc(C)cc1)=N/OC[C@@H](C)[C@H](OCc1ccccc1)C(C)C`, which AC50 (Cytochrome P450 3A4) is on record?
A: Its AC50 is 3.98 µM (inconclusive).

Q: Which results are given for `O=[N+]([O-])c1nn(-c2ccc3c(c2)OCCO3)[n+]([O-])c1NCc1ccc(F)cc1`?
A: EC50 [2]: 595 nM (active); EC50 [3]: > 60 µM (inconclusive)

Q: For `O=C(NCC1CCCO1)c1onc(CSc2ccc(Cl)cc2)c1C(=O)O` (stereo unspecified), which EC50 [1] is on record?
A: The EC50 was 9.58 µM (active).

Q: Which AC50 (Cytochrome P450 2D6) does the source give for `O=C(NC(=S)Nc1ccc2c(c1)OCO2)c1ccccc1` here?
A: Its AC50 is 3.55 µM (inconclusive).

Q: Which AC50 (Cytochrome P450 2D6) does the source give for `CCCCCC(=O)N1CCCC(c2nc(-c3ccc(OC)cc3)no2)C1` (stereo unspecified) here?
A: The AC50 was 15.8 µM (inconclusive).

Q: Which EC50 [1] does the source give for `CCN1CCN(CCNC(=O)CCCCCn2c(=O)[nH]c3cc(C(=O)OC)ccc3c2=O)CC1` here?
A: Its EC50 is > 195 µM (not active).

Q: Which AC50 (Cytochrome P450 3A4) does the source give for `COc1ccc(C(=O)N2CCC3(CCCN(Cc4ccccc4)C3)CC2)cc1` here?
A: Its AC50 is 31.6 µM (inconclusive).

Q: With `CN(Cc1ccccc1)C(=O)c1ccccc1NC(=O)C1=CSCCO1` as the molecule, how does the EC50 [1] read?
A: The EC50 was > 195 µM (not active).

Q: For `CC(C)n1cc(CN2CCN(C)C(CCO)C2)c2ccccc21` (stereo unspecified), which EC50 [2] is on record?
A: Its EC50 is 109 nM (active).

Q: What about the EC50 [3] of the same molecule?
A: The EC50 was > 60 µM (not active).

Q: For `CNC[C@H](O)c1ccc(OC(=O)C(C)(C)C)c(OC(=O)C(C)(C)C)c1`, which AC50 (Cytochrome P450 3A4) is on record?
A: The AC50 was 10 µM (inconclusive).

Q: For `C=CCN(c1ccccc1)S(=O)(=O)c1cccc(C(=O)NC2CCN(Cc3ccccc3)CC2)c1`, which EC50 [2] is on record?
A: The EC50 was 215 nM (active).

Q: What about the EC50 [3] of the same molecule?
A: Its EC50 is 26.8 µM (active).

Q: For `CC(C)CNC(=O)C1CCN(Cc2ccc(OCc3ccccc3)cc2)CC1`, which EC50 [1] is on record?
A: Its EC50 is > 195 µM (not active).

Q: Which EC50 [1] does the source give for `COc1cc(C(=O)NC2CCN(Cc3nnnn3Cc3cccs3)CC2)cc(OC)c1OC` here?
A: The EC50 was > 195 µM (not active).

Q: With `Cc1ccc(NC(=O)c2cc(NC(=O)c3ccco3)ccc2N2CCOCC2)cc1` as the molecule, how does the EC50 [1] read?
A: The EC50 was > 195 µM (not active).

Q: For `CCC(C)(NC(=O)c1ccccc1)C(=O)O` (stereo unspecified), which EC50 [1] is on record?
A: The EC50 was > 195 µM (not active).

Q: With `Cc1cc(C(F)F)nn1CC(=O)NC1C(=O)N2C(C(=O)O)=C(CSc3nnnn3C)CSC12` (stereo unspecified) as the molecule, how does the EC50 [4] read?
A: The EC50 was 90 nM (active).

Q: What about the EC50 (Streptococcus) of the same molecule?
A: The EC50 was 106 nM (active).

Q: With `Cc1c(-c2cccc(NC(=O)c3ccco3)c2)nc2ncccn12` as the molecule, how does the EC50 [2] read?
A: The EC50 was 1780 nM (active).

Q: What about the EC50 [3] of the same molecule?
A: Its EC50 is > 60 µM (not active).

Q: Which AC50 (Cytochrome P450 2D6) does the source give for `O=c1c(CCc2ccccc2)nc2cncnc2n1Cc1ccc(F)cc1` here?
A: The AC50 was 25.1 µM (inconclusive).

Q: What does the source list for `COc1ccc(CN(C)CC(O)COc2ccc(-c3ccccc3)cc2)cc1OC` (stereo unspecified)?
A: EC50 [2]: 447 nM (active); EC50 [3]: 21.7 µM (active)

Q: For `COc1ccc(NC(=O)c2cc3cc(OC)ccc3oc2=N)cc1`, which EC50 [1] is on record?
A: Its EC50 is > 195 µM (not active).

Q: Which EC50 [2] does the source give for `Cc1cccc2nc(CNC(=O)CC3C(=O)NCCN3Cc3cccc(F)c3)cn12` (stereo unspecified) here?
A: The EC50 was > 60000 nM (not active).

Q: What about the EC50 [3] of the same molecule?
A: The EC50 was > 60 µM (not active).

Q: With `CCOC(=O)N1CCN(Cc2nc3c(c(=O)n(C)c(=O)n3C)n2Cc2ccccc2)CC1` as the molecule, how does the EC50 [1] read?
A: Its EC50 is > 195 µM (not active).

Q: For `Cc1cccc(CNc2cc(-c3ccccc3Cl)ncn2)c1`, which AC50 (Cytochrome P450 2D6) is on record?
A: Its AC50 is 39.8 µM (inconclusive).

Q: With `COc1ccc(OC)c2nc(O)c(CCNC(=O)c3ccc(S(=O)(=O)N4CCCC4)cc3)cc12` as the molecule, how does the AC50 (Cytochrome P450 2D6) read?
A: The AC50 was 20 µM (inconclusive).

Q: Which EC50 [4] does the source give for `C/C(N)=C(/C#N)C(=O)CSc1nc2scc(-c3ccc(F)cc3)c2c(=O)n1C` here?
A: The EC50 was 2000 nM (active).

Q: What about the EC50 (Streptococcus) of the same molecule?
A: Its EC50 is 3170 nM (active).

Q: Which results are given for `CCCOc1ccc(CNC(=S)N/N=C/c2ccc([N+](=O)[O-])cc2)cc1`?
A: EC50 [2]: 1990 nM (active); EC50 [3]: > 60 µM (not active)

Q: With `Cc1ccc(C(=O)N/N=C\c2ccc([N+](=O)[O-])o2)cn1` as the molecule, how does the EC50 [2] read?
A: The EC50 was 238 nM (active).

Q: And the EC50 [3]?
A: The EC50 was > 60 µM (not active).

Q: For `C/C(=N\NC(=O)CC1N=C(Cc2ccccc2)NNC1=O)c1ccc(Cl)cc1Cl` (stereo unspecified), which AC50 (Cytochrome P450 2D6) is on record?
A: The AC50 was 15.8 µM (inconclusive).

Q: Which EC50 [2] does the source give for `Clc1cc(/C=N\NC2=NCCN2)cc(Cl)n1` here?
A: The EC50 was 663 nM (active).

Q: And the EC50 [3]?
A: Its EC50 is > 60 µM (not active).

Q: With `CCO/C(O)=C1\C(C)=NC(=S)NC1c1ccsc1` (stereo unspecified) as the molecule, how does the EC50 [1] read?
A: The EC50 was > 195 µM (not active).
